This note sets out measurements from patent US12410171B2, “Tropomyosin receptor kinase (TRK) degradation compounds and methods of use” (Cullgen (Shanghai), Inc., priority 2020, dated 2025).

This assay has as its target T1, TPM3-TRKA fusion protein (Homo sapiens, UniProt P04629).
T1 construct: The resulted chimeric proteins always retain the kinase domain of TRK proteins; TPM3 (fusion partner, N-terminal part of tropomyosin alpha-3, P06753); endogenous in cells; host or cells: KM12 colon cancer cells; the other entry of the earlier key: TPM3 (P06753, Tropomyosin alpha-3 chain)
Description: TPM3-TRKA fusion protein levels in KM12 cells (Western blot). The class given is cell-based. Conditions: for percent degradation of TPM3-TRKA protein at 0.01 µM: 16 h, TPM3-TRKA degradation in KM12 cells at 10 nM compound, category of percentage degradation, read-out: Degradation (at 10 nM). The procedure: KM12 cells were treated with DMSO or indicated compounds at 100 nM for 16 hours.
KM12 cells were treated with DMSO or indicated compounds at 0. 1 nM, 1 nM or 10 nM for 16 hours.
KM12 cells were treated with DMSO or indicated compounds at various concentrations for 16 hours.
KM12 cells were treated with DMSO or indicated compounds at various concentrations for 4 hours.
KM12 cells (a cancer model comprising a colon cancer cell line) were treated with DMSO or indicated compounds at various concentrations for 4 hours.
KM12 cells were treated with heterobifunctional compounds or their corresponding control compounds at 10 nM or 100 nM for 16 hours.
KM12 cells were treated with heterobifunctional compounds or their corresponding control compounds at 0.4-30 nM for 8-16 hours. […] Cells were authenticated using the short tandem repeat (STR) assays. […] Stable cell lines were established by lentivirus transduction, selected and maintained in medium containing 1 μg/mL puromycin (Beyotime Biotechnology).
Cultured cells were washed with cold PBS once and lysed in cold RIPA buffer supplemented with protease inhibitors and phosphatase inhibitors (Beyotime Biotechnology). The solutions were then incubated at 4° C. for 30 minutes with gentle agitation to fully lyse cells. For tumor tissues, tumors were cut into small pieces, milled with cold RIPA buffer using a mechanical homogenizer and lysed for 1 hour at 4° C. Cell lysates were centrifuged at 13,000 rpm for 10 minutes at 4° C. and pellets were discarded. Total protein concentrations in the lysates were determined by BCA assays (Beyotime Biotechnology). Cell lysates were mixed with Laemmli loading buffer to 1× and heated at 99° C. for 5 min. Proteins were resolved on SDS-PAGE and visualized by chemiluminescence. Images were taken by a ChemiDoc MP Imaging system (Bio-Rad). Protein bands were quantitated using the software provided by Bio-Rad.

Some results are limits rather than exact numbers.

T1 sequence (P04629 with tags, fused parts or gaps): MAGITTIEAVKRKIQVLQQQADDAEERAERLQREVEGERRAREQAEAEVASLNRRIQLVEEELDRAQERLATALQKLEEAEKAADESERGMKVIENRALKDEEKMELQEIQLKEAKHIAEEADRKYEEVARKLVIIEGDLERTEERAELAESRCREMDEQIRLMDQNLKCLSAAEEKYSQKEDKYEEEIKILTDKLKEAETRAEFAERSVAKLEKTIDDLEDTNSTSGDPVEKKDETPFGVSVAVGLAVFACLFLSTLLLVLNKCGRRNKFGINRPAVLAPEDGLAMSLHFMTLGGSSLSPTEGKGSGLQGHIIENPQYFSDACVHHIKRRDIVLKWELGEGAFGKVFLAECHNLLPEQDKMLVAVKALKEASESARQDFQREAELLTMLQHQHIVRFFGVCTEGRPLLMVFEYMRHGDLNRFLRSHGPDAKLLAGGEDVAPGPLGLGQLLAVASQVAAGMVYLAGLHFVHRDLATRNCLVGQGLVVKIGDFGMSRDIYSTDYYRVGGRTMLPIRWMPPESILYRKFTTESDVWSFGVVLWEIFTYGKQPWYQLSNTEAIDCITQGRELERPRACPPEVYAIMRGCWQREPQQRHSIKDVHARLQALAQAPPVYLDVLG

In the case of `O=C1CCC(N2C(=O)c3cccc(NCCCCC(=O)N4CCN(c5ccc(C(=O)Nc6n[nH]c7ccc(Cc8cc(F)cc(F)c8)cc67)c(NC6CCOCC6)c5)CC4)c3C2=O)C(=O)N1` (stereo not shown) [CPD-050, N-(5-(3,5-Difluorobenzyl)-1H-indazol-3-yl)-4-(4-(5-((2-(2,6-dioxopiperidin-3-yl)-1,3-dioxoisoindolin-4-yl)amino)pentanoyl)piperazin-1-yl)-2-((tetrahydro-2H-pyran-4-yl)amino)benzamide], the percent degradation of TPM3-TRKA protein at 0.01 µM is greater than 80%.

Regarding `O=C1CCC(N2C(=O)c3cccc(NCCC(=O)N4CCN(c5ccc(C(=O)Nc6n[nH]c7ccc(Cc8cc(F)cc(F)c8)cc67)c(NC6CCOCC6)c5)CC4)c3C2=O)C(=O)N1` (stereo not shown) [CPD-051, N-(5-(3,5-Difluorobenzyl)-1H-indazol-3-yl)-4-(4-(3-((2-(2,6-dioxopiperidin-3-yl)-1,3-dioxoisoindolin-4-yl)amino)propanoyl)piperazin-1-yl)-2-((tetrahydro-2H-pyran-4-yl)amino)benzamide], the percent degradation of TPM3-TRKA protein at 0.01 µM was greater than 80%.

Regarding `O=C1CCC(N2C(=O)c3cccc(NCCCCCCCC(=O)N4CCN(c5ccc(C(=O)Nc6n[nH]c7ccc(Cc8cc(F)cc(F)c8)cc67)c(NC6CCOCC6)c5)CC4)c3C2=O)C(=O)N1` (stereo not shown) [CPD-052, N-(5-(3,5-Difluorobenzyl)-1H-indazol-3-yl)-4-(4-(8-((2-(2,6-dioxopiperidin-3-yl)-1,3-dioxoisoindolin-4-yl)amino)octanoyl)piperazin-1-yl)-2-((tetrahydro-2H-pyran-4-yl)amino)benzamide], the percent degradation of TPM3-TRKA protein at 0.01 µM was greater than 80%.

With `O=C1CCC(N2C(=O)c3cccc(NCCOCCOCCOCCOCCOCCC(=O)N4CCN(c5ccc(C(=O)Nc6n[nH]c7ccc(Cc8cc(F)cc(F)c8)cc67)c(NC6CCOCC6)c5)CC4)c3C2=O)C(=O)N1` (stereo not shown) [CPD-054, N-(5-(3,5-Difluorobenzyl)-1H-indazol-3-yl)-4-(4-(1-((2-(2,6-dioxopiperidin-3-yl)-1,3-dioxoisoindolin-4-yl)amino)-3,6,9,12, 15-pentaoxaoctadecan-18-oyl)piperazin-1-yl)-2-((tetrahydro-2H-pyran-4-yl)amino)benzamide], the percent degradation of TPM3-TRKA protein at 0.01 µM is greater than 80%.

As to `O=C1CCC(N2C(=O)c3cccc(NCC(=O)N4CCN(c5ccc(C(=O)Nc6n[nH]c7ccc(Cc8cc(F)cc(F)c8)cc67)c(NC6CCOCC6)c5)CC4)c3C2=O)C(=O)N1` (stereo not shown) [CPD-055, N-(5-(3,5-Difluorobenzyl)-1HI-indazol-3-yl)-4-(4-((2-(2,6-dioxopiperidin-3-yl)-1,3-dioxoisoindolin-4-yl)glycyl)piperazin-1-yl)-2-((tetrahydro-2H-pyran-4-yl)amino)benzamide], the percent degradation of TPM3-TRKA protein at 0.01 µM was greater than 80%.

Regarding `O=C1CCC(N2C(=O)c3cccc(NCCCCCC(=O)N4CCN(c5ccc(C(=O)Nc6n[nH]c7ccc(Cc8cc(F)cc(F)c8)cc67)c(NC6CCOCC6)c5)CC4)c3C2=O)C(=O)N1` (stereo not shown) [CPD-056, N-(5-(3,5-Difluorobenzyl)-1H-indazol-3-yl)-4-(4-(6-((2-(2,6-dioxopiperidin-3-yl)-1,3-dioxoisoindolin-4-yl)amino)hexanoyl)piperazin-1-yl)-2-((tetrahydro-2H-pyran-4-yl)amino)benzamide], the percent degradation of TPM3-TRKA protein at 0.01 µM was greater than 80%.

As to `Cc1ncsc1-c1ccc(CNC(=O)[C@@H]2C[C@@H](O)CN2C(=O)[C@@H](NC(=O)COCCOCCOCC(=O)N2CCN(c3ccc(C(=O)Nc4n[nH]c5ccc(Cc6cc(F)cc(F)c6)cc45)c(NC4CCOCC4)c3)CC2)C(C)(C)C)cc1` [CPD-058, (25,4R)-1-((S)-2-(tert-butyl)-14-(4-(4-((5-(3,5-Difluorobenzyl)-1H-indazol-3-yl)carbamoyl)-3-((tetrahydro-2H-pyran-4-yl)amino)phenyl)piperazin-1-yl)-4,14-dioxo-6,9,12-trioxa-3-azatetradecanoyl)-4-hydroxy-N-(4-(4-methylthiazol-5-yl)benzyl)pyrrolidine-2-carboxamide], the percent degradation of TPM3-TRKA protein at 0.01 µM is less than 50%.

Turning to `O=C(CN1CCN(c2cccc(-c3cnc4ccc(N5CCC[C@@H]5c5cccc(F)c5)nn34)n2)CC1)NCCOCCOCCOCCNc1cccc2c1C(=O)N(C1CCC(=O)NC1=O)C2=O` (stereo partly drawn) [CPD-059, N-(2-(2-(2-(2-((2-(2,6-Dioxopiperidin-3-yl)-1,3-dioxoisoindolin-4-yl)amino)ethoxy)ethoxy)ethoxy)ethyl)-2-(4-(6-(6-((R)-2-(3-fluorophenyl)pyrrolidin-1-yl)imidazo[1,2-b]pyridazin-3-yl)pyridin-2-yl)piperazin-1-yl)acetamide], the percent degradation of TPM3-TRKA protein at 0.01 µM is greater than 80%.

Take `O=C(CN1CCN(c2cccc(-c3cnc4ccc(N5CCC[C@@H]5c5cccc(F)c5)nn34)n2)CC1)NCCNc1cccc2c1C(=O)N(C1CCC(=O)NC1=O)C2=O` (stereo partly drawn) [CPD-060, N-(2-((2˜ (2,6-Dioxopiperidin-3-yl)-1,3-dioxoisoindolin-4-yl)amino)ethyl)-2-(4-(6-(6-((R)-2-(3-fluorophenyl)pyrrolidin-1-yl)imidazo[1,2-b]pyridazin-3-yl)pyridin-2-yl)piperazin-1-yl)acetamide]: the percent degradation of TPM3-TRKA protein at 0.01 µM was greater than 80%. Moreover, under “KM12 cells, 100 nM, indicated incubation time, Western blot (FIG. 2)”, the TPM3-TRKA protein levels result is “rapidly reduced TPM3-TRKA protein levels”.

`Cc1ncsc1-c1ccc(CNC(=O)[C@@H]2C[C@@H](O)CN2C(=O)[C@@H](NC(=O)CCCCCCCNC(=O)CN2CCN(c3ccc(C(=O)Nc4n[nH]c5ccc(Cc6cc(F)cc(F)c6)cc45)c(NC4CCOCC4)c3)CC2)C(C)(C)C)cc1` [CPD-061, (2S,4R)-1-((S)-2-(8-(2-(4-(4-((5-(3,5-Difluorobenzyl)-1H-indazol-3-yl)carbamoyl)-3-((tetrahydro-2H-pyran-4-yl)amino)phenyl)piperazin-1-yl)acetamido)octanamido)-3,3-dimethylbutanoyl)-4-hydroxy-N-(4-(4-methylthiazol-5-yl)benzyl)pyrrolidine-2-carboxamide]: the percent degradation of TPM3-TRKA protein at 0.01 µM was less than 50%.

`O=C(CN1CCN(c2ccc(C(=O)Nc3n[nH]c4ccc(Cc5cc(F)cc(F)c5)cc34)c(NC3CCOCC3)c2)CC1)NCCNc1cccc2c1C(=O)N(C1CCC(=O)NC1=O)C2=O` (stereo not shown) [CPD-062, N-(5-(3,5-Difluorobenzyl)-1H-indazol-3-yl)-4-(4-(2-((2-((2-(2,6-dioxopiperidin-3-yl)-1,3-dioxoisoindolin-4-yl)amino)ethyl)amino)-2-oxoethyl)piperazin-1-yl)-2-((tetrahydro-2H-pyran-4-yl)amino)benzamide]: the percent degradation of TPM3-TRKA protein at 0.01 µM is greater than 80%.

For `O=C(CN1CCN(c2ccc(C(=O)Nc3n[nH]c4ccc(Cc5cc(F)cc(F)c5)cc34)c(NC3CCOCC3)c2)CC1)NCCOCCOCCOCCNc1cccc2c1C(=O)N(C1CCC(=O)NC1=O)C2=O` (stereo not drawn) [CPD-064, N—(S-(3,5-Difluorobenzyl)-1H-indazol-3-yl)-4-(4-(14-((2-(2,6-dioxopiperidin-3-yl)-1,3-dioxoisoindolin-4-yl)amino)-2-oxo-6,9,12-trioxa-3-azatetradecyl)piperazin-1-yl)-2-((tetrahydro-2H-pyran-4-yl)amino)benzamide], the percent degradation of TPM3-TRKA protein at 0.01 µM is greater than 80%.

As for `O=C(CN1CCN(c2ccc(C(=O)Nc3n[nH]c4ccc(Cc5cc(F)cc(F)c5)cc34)c(NC3CCOCC3)c2)CC1)NCCOCCOCCOCCOCCOCCNc1cccc2c1C(=O)N(C1CCC(=O)NC1=O)C2=O` (stereo not shown) [CPD-065, N-(5-(3,5-Difluorobenzyl)-1H-indazol-3-yl)-4-(4-(20-((2-(2,6-dioxopiperidin-3-yl)-1,3-dioxoisoindolin-4-yl)amino)-2-oxo-6,9,12,15,18-pentaoxa-3-azaicosyl)piperazin-1-yl)-2-((tetrahydro-2H-pyran-4-yl)amino)benzamide], the percent degradation of TPM3-TRKA protein at 0.01 µM is greater than 80%.

Consider `O=C(CN1CCN(c2cccc(-c3cnc4ccc(N5CCC[C@@H]5c5cccc(F)c5)nn34)n2)CC1)NCCOCCOCCOCCOCCOCCNc1cccc2c1C(=O)N(C1CCC(=O)NC1=O)C2=O` (stereo partly drawn) [TR-104, N-(17-((2-(2,6-dioxopiperidin-3-yl)-1,3-dioxoisoindolin-4-yl)amino)-3,6,9,12,15-pentaoxaheptadecyl)-2-(4-(6-(6-((R)-2-(3-fluorophenyl)pyrrolidin-1-yl)imidazo[1,2-b]pyridazin-3-yl)pyridin-2-yl)piperazin-1-yl)acetamide], for which the percent degradation of TPM3-TRKA protein at 0.01 µM is greater than 80%.

For the compound `O=C(CN1CCN(c2cccc(-c3cnc4ccc(N5CCC[C@@H]5c5cccc(F)c5)nn34)n2)CC1)NCCOCCOCCNc1cccc2c1C(=O)N(C1CCC(=O)NC1=O)C2=O` (stereo partly drawn) [TR-105, N-(2-(2-(2-((2-(2,6-dioxopiperidin-3-yl)-1,3-dioxoisoindolin-4-yl)amino)ethoxy)ethoxy)ethyl)-2-(4-(6-(6-((R)-2-(3-fluorophenyl)pyrrolidin-1-yl)imidazo[1,2-b]pyridazin-3-yl)pyridin-2-yl)piperazin-1-yl)acetamide], the percent degradation of TPM3-TRKA protein at 0.01 µM is greater than 80%.
